Where two headings read alike, the source gives them in different places.
Columns and labels:
[1] = target: T1, human recombinant bradykinin B1 receptor (Homo sapiens, UniProt P46663); experiment: Human recombinant bradykinin B1 receptor competitive radioligand binding
T1 construct: host or cells: CHO cells, clone hB1-A5
T1 sequence (P46663 1-353): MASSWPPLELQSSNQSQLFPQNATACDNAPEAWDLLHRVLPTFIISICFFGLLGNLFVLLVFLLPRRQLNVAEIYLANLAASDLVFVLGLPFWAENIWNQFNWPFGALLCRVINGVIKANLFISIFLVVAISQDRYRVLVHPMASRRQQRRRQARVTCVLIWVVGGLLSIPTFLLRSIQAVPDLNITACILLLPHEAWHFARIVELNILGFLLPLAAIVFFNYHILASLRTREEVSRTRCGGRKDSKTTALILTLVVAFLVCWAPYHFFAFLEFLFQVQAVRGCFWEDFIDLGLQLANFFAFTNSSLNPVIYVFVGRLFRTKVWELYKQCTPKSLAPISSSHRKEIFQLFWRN
Summary of the method: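 Membranes from CHO cells expressing hB1 (20 μg protein/tube) incubated 15 min at 25° C. with [3,4-prolyl-3,4-^3H(N)]-[Des-Arg^10] Kallidin; nonspecific binding defined with 10 μM Lys-des-Arg^9-Bradykinin. Bound label collected by filtration and counted. IC50 from ≥7-point curves in triplicate; Ki by Cheng-Prusoff.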

[2] = target: T2, recombinant human B1 receptors (Homo sapiens, UniProt P46663); experiment: Functional assay: antagonist potency by cytosolic calcium measurement (plate reader fluorimeter) in CHO-B1 cells, agonist LysDABK; type: cell-based
T2 construct: host or cells: CHO (CHO-B1)
T2 sequence (P46663 1-353): T1 sequence (P46663 1-353)
Summary of the method: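 IC50 is the concentration giving half-maximal inhibition of the LysDABK (EC80) calcium response, fitted from at least three experiments. CHO cells stably expressing human B1 were dye-loaded, exposed to compound for 20-25 min, then read by fluo-4 fluorescence (ΔF/F) at 37 °C.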

[3] = hB1 expressed in CHO cells, [3H]-[Des-Arg10] Kallidin radioligand, read-out: B1 binding
[4] = CHO-B1 cells, inhibition of LysDABK (EC80)-evoked [Ca2+]i elevation, read-out: B1 func.

| Structure (SMILES) | Ki [1, 3] | IC50 [2, 4] | Ki ([1]; reference compounds, binding test, measured by the applicant, read-out: Ki) | IC50 ([2]; reference compounds, functional test, measured by the applicant, read-out: IC50) |
| --- | --- | --- | --- | --- |
| CC(NC(=O)C1(NC(=O)C(F)(F)F)CC1)c1ccc(-n2c(C(=O)N3CCCC3)c(Cl)c3ccccc32)cc1 (centres unmarked) [Example 33, 1-(2,2,2-Trifluoro-acetylamino)-cyclopropanecarboxylic acid (1-{4-[3-chloro-2-(pyrrolidine-1-carbonyl)-indol-1-yl]-phenyl}-ethyl)-amide] | 20 to 100 nM | 100 to 500 nM |  |  |
| Cc1nc(-c2c(Cl)c3ccccc3n2-c2ccc(CNC(=O)C3(NC(=O)C4CCC4)CC3)cc2)no1 [Example 143, Cyclobutanecarboxylic acid (1-{4-[3-chloro-2-(5-methyl-[1,2,4]oxadiazol-3-yl)-indol-1-yl]-benzylcarbamoyl}-cyclopropyl)-amide] | < 20 nM | < 20 nM |  |  |
| CC(=O)NC(CO)C(=O)NC1(C(=O)NCc2ccc(-n3c(-c4noc(C)n4)c(Cl)c4ccccc43)cc2)CC1 (centres unmarked) [Example 151, 1-(2-Acetylamino-3-hydroxy-propionylamino)-cyclopropanecarboxylic acid 4-[3-chloro-2-(5-methyl-[1,2,4]oxadiazol-3-yl)-indol-1-yl]-benzylamide] | 100 to 500 nM | 100 to 500 nM |  |  |
| CCCc1cc(C(=O)NC2(C(=O)NCc3ccc(-n4c(-c5noc(C)n5)c(Cl)c5ccccc54)cc3)CC2)on1 [Example 42, 3-Propyl-isoxazole-5-carboxylic acid (1-{4-[3-chloro-2-(5-methyl-[1,2,4]oxadiazol-3-yl)-indol-1-yl]-benzylcarbamoyl}-cyclopropyl)-amide] | < 20 nM | < 20 nM |  |  |
| Cc1nc(-c2c(Cl)c3ccccc3n2-c2ccc(CNC(=O)C3(NC(=O)C4(C#N)CC4)CC3)cc2)no1 [Example 142, 1-Cyano-cyclopropanecarboxylic acid (1-{4-[3-chloro-2-(5-methyl-[1,2,4]oxadiazol-3-yl)-indol-1-yl]-benzylcarbamoyl}-cyclopropyl)-amide] | < 20 nM | 20 to 100 nM |  |  |
| Cc1nc(-c2c(Cl)c3ccccc3n2-c2ccc(CNC(=O)C3(NC(=O)c4cccc(F)c4)CC3)c(F)c2)no1 [Example 105, N-(1-{4-[3-Chloro-2-(5-methyl-[1,2,4]oxadiazol-3-yl)-indol-1-yl]-2-fluoro-benzylcarbamoyl}-cyclopropyl)-3-fluoro-benzamide] | < 20 nM | < 20 nM |  |  |
| Cc1noc(-c2c(Cl)c3ccccc3n2-c2ccc(CNC(=O)C3(NC(=O)c4cc(C5CC5)on4)CC3)cc2)n1 [Example 114, 5-Cyclopropyl-isoxazole-3-carboxylic acid (1-{4-[3-chloro-2-(3-methyl-[1,2,4]oxadiazol-5-yl)-indol-1-yl]-benzylcarbamoyl}-cyclopropyl)-amide] | < 20 nM | < 20 nM |  |  |
| COc1ccc2c(c1)cc(C#N)n2-c1ccc(CNC(=O)C2(NC(=O)c3cncc(C(F)(F)F)c3)CC2)cc1 [Example 44, N-{1-[4-(2-Cyano-5-methoxy-indol-1-yl)-benzylcarbamoyl]-cyclopropyl}-5-trifluoromethyl-nicotinamide] | < 20 nM | < 20 nM |  |  |
| COc1cc(C(=O)NC2(C(=O)NCc3ccc(-n4c(-c5cnco5)c(Cl)c5ccccc54)cc3)CC2)on1 [Example 16, 3-Methoxy-isoxazole-5-carboxylic acid (1-{4-[3-chloro-2-(1,3-oxazol-5-yl)-indol-1-yl]-benzylcarbamoyl}-cyclopropyl)-amide] | < 20 nM | < 20 nM |  |  |
| Cn1nnc(-c2cc3ccccc3n2-c2ccc(CNC(=O)C3(NC(=O)C(F)(F)F)CC3)cc2)n1 [Example 36, 1-(2,2,2-Trifluoro-acetylamino)-cyclopropanecarboxylic acid 4-[2-(2-methyl-2H-tetrazol-5-yl)-indol-1-yl]-benzylamide] | < 20 nM | < 20 nM |  |  |
| COc1cc(C(=O)NC2(C(=O)NCc3ccc(-n4c(-c5nnn(C)n5)c(Cl)c5cc(Cl)ccc54)cc3)CC2)on1 [Example 18, 3-Methoxy-isoxazole-5-carboxylic acid (1-{4-[3,5-dichloro-2-(2-methyl-2H-tetrazol-5-yl)-indol-1-yl]-benzylcarbamoyl}-cyclopropyl)-amide] | < 20 nM | < 20 nM |  |  |
| COc1cc(C(=O)NC2(C(=O)NCc3ccc(-n4c(-c5noc(C)n5)c(Cl)c5ccccc54)cc3)CC2)on1 [Example 9, 3-Methoxy-isoxazole-5-carboxylic acid (1-{4-[3-chloro-2-(5-methyl-[1,2,4]oxadiazol-3-yl)-indol-1-yl]-benzylcarbamoyl}-cyclopropyl)-amide] | < 20 nM | < 20 nM |  |  |
| COc1ccc2c(c1)cc(-c1nnc(C)o1)n2-c1ccc(CNC(=O)C2(NC(=O)c3cc(OC)no3)CC2)cc1 [Example 126, 3-Methoxy-isoxazole-5-carboxylic acid (1-{4-[5-methoxy-2-(5-methyl-[1,3,4]oxadiazol-2-yl)-indol-1-yl]-benzylcarbamoyl}-cyclopropyl)-amide] | < 20 nM | 20 to 100 nM |  |  |
| COC(=O)c1c(Cl)c2ccccc2n1-c1ccc(CNC(=O)C2(NC(=O)C(F)(F)F)CC2)c(F)c1 [Example 54, 3-Chloro-1-[3-fluoro-4-({[1-(2,2,2-trifluoro-acetylamino)-cyclopropanecarbonyl]-amino}-methyl)-phenyl]-1H-indole-2-carboxylic acid methyl ester] | < 20 nM | < 20 nM |  |  |
| Cc1nc(-c2c(Cl)c3ccccc3n2-c2ccc(CNC(=O)C3(NC(=O)c4cccc(=O)[nH]4)CC3)cc2)no1 [Example 162, 6-Oxo-1,6-dihydro-pyridine-2-carboxylic acid (1-{4-[3-chloro-2-(5-methyl-[1,2,4]oxadiazol-3-yl)-indol-1-yl]-benzylcarbamoyl}-cyclopropyl)-amide] | < 20 nM | < 20 nM |  |  |
| Cc1nnc(-c2c(Cl)c3ccccc3n2-c2ccc(CNC(=O)C3(NC(=O)c4cnc5ccccc5c4)CC3)cc2)o1 [Example 182, Quinoline-3-carboxylic acid (1-{4-[3-chloro-2-(5-methyl-[1,3,4]oxadiazol-2-yl)-indol-1-yl]-benzylcarbamoyl}-cyclopropyl)-amide] | < 20 nM | < 20 nM |  |  |
| Cc1nc(-c2c(Cl)c3cc(F)ccc3n2-c2ccc(CNC(=O)C3(NC(=O)C(F)(F)F)CC3)cc2)no1 [Example 189, 1-(2,2,2-Trifluoro-acetylamino)-cyclopropanecarboxylic acid 4-[3-chloro-5-fluoro-2-(5-methyl-[1,2,4]oxadiazol-3-yl)-indol-1-yl]-benzylamide] | < 20 nM | < 20 nM |  |  |
| CN1CCN(C(=O)C2CCN(S(=O)(=O)c3ccc(NCC(c4ccccc4)c4ccccc4)c(C(=O)N4CCOCC4)c3)CC2)CC1 [NVP-SAA164, 4-{2-[(2,2-diphenyl-ethyl)-amino]-5-{4-[4-[(4-methyl-1-piperazinyl)-carbonyl]-1-piperidinyl]-sulfonyl}-benzoyl}-morpholine, reference compound] |  |  | 8 nM | 33 nM |
| Cn1nnc(-c2c(Cl)c3ccccc3n2-c2ccc(CNC(=O)C3(NC(=O)c4cccc(F)c4)CC3)cc2)n1 [Example 31, N-(1-{4-[3-chloro-2-(2-methyl-2H-tetrazol-5-yl)-indol-1-yl]-benzylcarbamoyl}-cyclopropyl)-3-fluoro-benzamide] | < 20 nM | < 20 nM |  |  |

Source: patent US20130217702A1 (Richter Gedeon Nyrt., priority 2010, published 2013)
